Measured values from US7608604B2, “Antiparasitic agents” (Pfizer Limited, priority 2007, dated 2009).

tested on: Haemonchus contortus L3; assay: Haemonchus contortus L3 (HcL3) in vitro test; format: cell-based; settings: minimum effective dose; exsheathed L3 larvae in vitro, 37° C., observed up to 4 days, n=2
Experimental: The Haemonchus contortus L3 (HcL3) test is used to measure the biological activities of the compounds claimed. The assay involves in vitro testing against H. contortus conducted according to the following general procedure.
HcL3 larvae were collected from infected sheep and, after cleaning, stored in water at 12° C. for up to one month. Viable infective larvae were exsheathed using 10% hypochlorite in Glucose Tyrodes balanced salt solution containing antibiotics and resuspended in basal medium (20 g/l bacto-tryptone, 5 g/l yeast extract, 57 g/l glucose, 0.8 g/l di-Potassium hydrogen orthophosphate, 0.8 g/l potassium dihydrogen orthophosphate and […] Hepes with antibiotics). 95 μl worm suspension was added to each well of a 96 well plate.
Test compounds were dissolved in dimethylsulfoxide to give a working stock solution of 20 mg/ml. The stock concentration was diluted 1:10 in Basal media to give 2.0 mg/ml (10% DMSO). 5 μl of the stock compound solution was added to the worm suspension to give a final concentration of 100 μg/ml. Plates were sealed with pressure sensitive film and incubated at 37° C. Observations were made 2 hrs, 24 hrs, 48 hrs, 72 hrs and 4 days post-treatment using an inverted microscope. Activity was recorded if a significant proportion of the worms were dead or adversely affected by the compound when compared to the control well containing 1% DMSO. Compounds were initially tested at 100 μg/ml, wherefrom relevant dose responses (100, 30, 10, 3, 1, 0.3, 0.1 μg/ml) were conducted in duplicate experiments to generate n=2. Data was recorded as minimum effective dose.

In order of rising “in vitro H.c. (L3) MED” value:
1. CC(C#N)(COc1cc(C#N)ccc1Cl)NC(=O)c1ccc(S(F)(F)(F)(F)F)cc1 (racemic) [Example 2, N-[2-(2-Chloro-5-cyanophenoxy)-1-cyano-1-methylethyl]-4-(pentafluorothio)benzamide]  1 µg/mL
2. CC(C#N)(COc1ccc(C#N)cc1C(F)(F)F)NC(=O)c1ccc(S(F)(F)(F)(F)F)cc1 (racemic) [Example 3a, N-{1-Cyano-2-[4-cyano-2-(trifluoromethyl)Phenoxy]-1-methylethyl}-4-(pentafluorothio)benzamide]  1 µg/mL
3. CC(C#N)(COc1ccc(C#N)cc1C(F)(F)F)NC(=O)c1ccc(S(F)(F)(F)(F)F)cc1 (single isomer, unassigned) [Example 3b, N-{1-Cyano-2-[4-cyano-2-(trifluoromethyl)Phenoxy]-1-methylethyl}-4-(pentafluorothio)benzamide]  1 µg/mL
4. CC(C#N)(COc1cc(C#N)ccc1C(F)(F)F)NC(=O)c1ccc(S(F)(F)(F)(F)F)cc1 (centres unmarked) [Example 1b, N-{1-cyano-2-[5-cyano-2-(trifluoromethyl)phenoxy]-1-methylethyl}-4-(pentafluorothio)benzamide]  1 µg/mL
5. CC(C#N)(COc1cc(C#N)ccc1C(F)(F)F)NC(=O)c1ccc(S(F)(F)(F)(F)F)cc1 (racemic) [Example 1a, N-{1-cyano-2-[5-cyano-2-(trifluoromethyl)phenoxy]-1-methylethyl}-4-(pentafluorothio)benzamide]  3 µg/mL
6. CC(C#N)(COc1c(F)cc(C#N)cc1C(F)(F)F)NC(=O)c1ccc(S(F)(F)(F)(F)F)cc1 (racemic) [Example 4, N-{1-Cyano-2-[4-cyano-2-fluoro-6-(trifluoromethyl)phenoxy]-1-methylethyl}-4-(pentafluorothio)benzamide]  3 µg/mL

`C[C@](C#N)(COc1cc(C#N)ccc1C(F)(F)F)NC(=O)c1ccc(S(F)(F)(F)(F)F)cc1` (single isomer, unassigned) [Example 1c, N-{1-cyano-2-[5-cyano-2-(trifluoromethyl)phenoxy]-1-methylethyl}-4-(pentafluorothio)benzamide] was tested, and the “in vitro H.c. (L3) MED” value was greater than 30 µg/mL.
With `CC(C#N)(COc1ccc(C#N)cc1C(F)(F)F)NC(=O)c1ccc(S(F)(F)(F)(F)F)cc1` (single isomer, unassigned) [Example 3c, N-{1-Cyano-2-[4-cyano-2-(trifluoromethyl)Phenoxy]-1-methylethyl}-4-(pentafluorothio)benzamide] the “in vitro H.c. (L3) MED” value was greater than 30 µg/mL.

same assay, conditions: minimum effective dose; table of Examples 5-11

In order of rising “H.c. (L3) MED” value:
1. CC(C#N)(COc1ccc(C#N)cc1Cl)NC(=O)c1ccc(S(F)(F)(F)(F)F)cc1 (centres unmarked) [Example 5, N-[2-(2-Chloro-4-cyanophenoxy)-1-cyano-1-methylethyl]-4-(pentafluorothio)benzamide]  3 µg/mL
2. CC(C#N)(COc1ccc(C#N)c(Cl)c1)NC(=O)c1ccc(S(F)(F)(F)(F)F)cc1 (centres unmarked) [Example 6, N-[2-(3-Chloro-4-cyanophenoxy)-1-cyano-1-methylethyl]-4-(pentafluorothio)benzamide]  3 µg/mL
3. CC(C#N)(COc1cc(C#N)ccc1C#N)NC(=O)c1ccc(S(F)(F)(F)(F)F)cc1 (centres unmarked) [Example 9, N-[1-Cyano-2-(3,6-dicyanophenoxy)-1-methylethyl]-4-(pentafluorothio)benzamide]  3 µg/mL
4. CC(C#N)(COc1ccc(C#N)cc1Br)NC(=O)c1ccc(S(F)(F)(F)(F)F)cc1 (centres unmarked) [Example 11, N-[2-(2-Bromo-4-cyanophenoxy)-1-cyano-1-methylethyl]-4-(pentafluorothio)benzamide]  3 µg/mL
5. CC(C#N)(COc1ccc(Br)cc1C(F)(F)F)NC(=O)c1ccc(S(F)(F)(F)(F)F)cc1 (centres unmarked) [Example 10, N-{2-[4-Bromo-2-(trifluoromethyl)phenoxy]-1-cyano-1-methylethyl}-4-(pentafluorothio)benzamide]  10 µg/mL
6. CC(C#N)(COc1cc(C#N)cc(C(F)(F)F)c1)NC(=O)c1ccc(S(F)(F)(F)(F)F)cc1 (centres unmarked) [Example 7, N-{1-cyano-2-[3-cyano-5-(trifluoromethyl)phenoxy]-1-methylethyl}-4-(pentafluorothio)benzamide]  30 µg/mL
7. CC(C#N)(COc1c(F)cc(F)cc1C#N)NC(=O)c1ccc(S(F)(F)(F)(F)F)cc1 (centres unmarked) [Example 8, N-[1-Cyano-2-(2-cyano-4,6-difluorophenoxy)-1-methylethyl]-4-(pentafluorothio)benzamide]  30 µg/mL

same assay, conditions: minimum effective dose; table of Examples 13a-42; 13a/b, 27a/b, 29a/b, 33a/b tested as mixtures of regioisomers

In order of rising “H.c. (L3) MED” value:
1. CC(C#N)(COc1cc(Cl)cc(C#N)c1)NC(=O)c1ccc(S(F)(F)(F)(F)F)cc1 (centres unmarked) [Example 14, N-[2-(3-Chloro-5-cyanophenoxy)-1-cyano-1-methylethyl]-4-(pentafluorothio)benzamide]  3 µg/mL
2. CC(C#N)(COc1ccc(Cl)cc1C#N)NC(=O)c1ccc(S(F)(F)(F)(F)F)cc1 (centres unmarked) [Example 17, N-[2-(4-Chloro-2-cyanophenoxy)-1-cyano-1-methylethyl]-4-(pentafluorothio)benzamide]  3 µg/mL
3. CC(C#N)(COc1ccc(I)cc1)NC(=O)c1ccc(S(F)(F)(F)(F)F)cc1 (centres unmarked) [Example 20, N-[1-Cyano-2-(4-iodophenoxy)-1-methylethyl]-4-(pentafluorothio)benzamide]  3 µg/mL
4. CC(C#N)(COc1cc(Br)ccc1C#N)NC(=O)c1ccc(S(F)(F)(F)(F)F)cc1 (centres unmarked) [Example 16, N-[2-(5-Bromo-2-cyanophenoxy)-1-cyano-1-methylethyl]-4-(pentafluorothio)benzamide]  10 µg/mL
5. CC(C#N)(COc1cccc(F)c1C#N)NC(=O)c1ccc(S(F)(F)(F)(F)F)cc1 (centres unmarked) [Example 18, N-[1-Cyano-2-(2-cyano-3-fluorophenoxy)-1-methylethyl]-4-(pentafluorothio)benzamide]  10 µg/mL
6. CC(C#N)(COc1ccccc1C#N)NC(=O)c1ccc(S(F)(F)(F)(F)F)cc1 (centres unmarked) [Example 19, N-[1-Cyano-2-(2-cyanophenoxy)-1-methylethyl]-4-(pentafluorothio)benzamide]  10 µg/mL

same assay, conditions: minimum effective dose; unit not given

In order of rising “in vitro H.c. (L3) MED” value:
1. CC(C#N)(COc1ccc(C(N)=O)cc1C(F)(F)F)NC(=O)c1ccc(S(F)(F)(F)(F)F)cc1 (racemic) [Example 43, 4-(2-Cyano-2-{[4-(pentafluorothio)benzoyl]amino}propoxy)-3-(trifluoromethyl)benzamide]  1
2. CC(C#N)(COc1cccc(C#N)c1)NC(=O)c1ccc(S(F)(F)(F)(F)F)cc1 (racemic) [Example 50, N-[1-Cyano-2-(3-cyanophenoxy)-1-methylethyl]-4-(pentafluorothio)benzamide]  3
3. CC(C#N)(COc1ccc(Cl)cc1Cl)NC(=O)c1ccc(S(F)(F)(F)(F)F)cc1 (centres unmarked) [Example 12, N-[1-Cyano-2-(2,4-dichlorophenoxy)-1-methylethyl]-4-(pentafluorothio)benzamide]  3
4. CC(C#N)(COc1cc(C#N)cc(C(F)(F)F)c1Cl)NC(=O)c1ccc(S(F)(F)(F)(F)F)cc1 (racemic) [Example 44, N-{2-[2-Chloro-5-cyano-3-(trifluoromethyl)phenoxy]-1-cyano-1-methylethyl}-4-(pentafluorothio)benzamide]  10
5. CC(C#N)(COc1cc(C#N)cc(C(N)=O)c1)NC(=O)c1ccc(S(F)(F)(F)(F)F)cc1 (racemic) [Example 53, 3-Cyano-5-(2-cyano-2-{[4-(pentafluorothio)benzoyl]amino}propoxy)benzamide]  30
